# Measurements as given in US6693108B2, “Inhibitors of c-JUN N terminal kinases (JNK) and other protein kinases” (Vertex Pharmaceuticals Incorporated, priority 1999, dated 2004).
# Molecular target: T1, activated JNK3 (Homo sapiens, UniProt P53779)
# T1 construct: One such construct encodes amino acid residues Ser40-Glu402 of JNK3α1 and is preceded by Met and Gly residues; Met-Gly (initiation Met plus Gly added to create the NcoI site) (N); made in house; host or cells: E. coli BL21 (DE3)
# Experiment: JNK3 inhibition, spectrophotometric coupled-enzyme assay
# Assay type: biochemical
# Design: Activity in the JNK3 Inhibition Assay (Ki rating): scale not given here
# Settings: activated JNK3 10 nM, 10 μM ATP, 30° C.; Ki from competitive inhibition model
# Excerpt: A BLAST search of the EST database using the published JNK3α1 cDNA as a query identified an EST clone (#632588) that contained the entire coding sequence for human JNK3α1. Polymerase chain reactions (PCR) using pfu polymerase (Strategene) were used to introduce restriction sites into the cDNA for cloning into the pET-15B expression vector at the NcoI and BamHI sites. The protein was expressed in E. coli. […] This truncation corresponds to Ser 2 of JNK1 and JNK2 proteins, and is preceded by a methionine (initiation) and a glycine residue. The glycine residue was added in order to introduce an NcoI site for cloning into the expression vector. In addition, systematic C-terminal truncations were performed by PCR to identify a construct that give rise to diffraction-quality crystals.
# 5 mg of JNK3 was diluted to 0.5 mg/ml in 50 mM HEPES buffer, pH 7.5, containing 100 mM NaCl, 5 mM DTT, 20 mM MgCl2 and 1 mM ATP. GST-MKK7(DD) was added at a molar ratio of 1:2.5 GST-MKK7:JNK3. After incubation for 30 minutes at 25° C., the reaction mixture was concentrated 5-fold by ultrafiltration in a Centriprep-30 (Amicon, Beverly, Mass.), diluted to 10 ml and an additional 1 mM ATP added. This procedure was repeated three times to remove ADP and replenish ATP. The final addition of ATP was 5 mM and the mixture incubated overnight at 4° C.
# The activated JNK3/GST-MKK7(DD) reaction mixture was exchanged into 50 mM HEPES buffer, pH 7.5, containing 5 mM DTT and 5% glycerol (w/v) by dialysis or ultrafiltration. The reaction mixture was adjusted to 1.1 M potassium phosphate, pH 7.5, and purified by hydrophobic interaction chromatography (at 25° C.) using a Rainin Hydropore column. […] Activated JNK3 (i.e. doubly phosphorylated JNK3) was stored at −70° C. at 0.25-1 mg/ml.
# Compounds were assayed for the inhibition of JNK3 by a spectrophotometric coupled-enzyme assay. In this assay, a fixed concentration of activated JNK3 (10 nM) was incubated with various concentrations of a potential inhibitor dissolved in DMSO for 10 minutes at 30° C. in a buffer containing 0.1 M HEPES buffer, pH 7.5, containing 10 mM MgCl2, 2.5 mM phosphoenolpyruvate, 200 μM NADH, 150 μg/mL pyruvate kinase, 50 μg/mL lactate dehydrogenase, and 200 μM EGF receptor peptide. […] The reaction was initiated by the addition of 10 μM ATP and the assay plate is inserted into the spectrophotometer's assay plate compartment that was maintained at 30° C. The decrease of absorbance at 340 nm was monitored as a function of time. The rate data as a function of inhibitor concentration was fitted to competitive inhibition kinetic model to determine the Ki.
# T1 sequence (P53779 40-402): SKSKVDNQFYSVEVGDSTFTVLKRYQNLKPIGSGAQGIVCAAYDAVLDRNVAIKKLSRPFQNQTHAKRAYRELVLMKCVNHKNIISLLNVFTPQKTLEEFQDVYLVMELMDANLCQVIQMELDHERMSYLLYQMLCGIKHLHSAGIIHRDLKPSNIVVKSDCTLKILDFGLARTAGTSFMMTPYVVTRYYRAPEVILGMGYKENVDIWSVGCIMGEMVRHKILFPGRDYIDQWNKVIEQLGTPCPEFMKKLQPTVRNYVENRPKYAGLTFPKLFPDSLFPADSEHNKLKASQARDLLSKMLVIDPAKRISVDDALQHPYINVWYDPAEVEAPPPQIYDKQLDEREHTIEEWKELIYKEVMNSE
row,Activity in the JNK3 Inhibition Assay (Ki rating),Compound
1,B/C,COc1cccc(-c2noc(C)c2-c2ccnc(Nc3ccccc3)n2)c1OC [IIA-12]
2,A/B,Cc1onc(-c2ccccc2)c1-c1ccnc(Nc2cccc(F)c2C)n1 [IIA-70]
3,A/B,COc1ccc(Cl)c(Nc2nccc(-c3c(-c4ccccc4)noc3C)n2)c1 [IIA-71]
4,A/B,COc1ccc(Nc2nccc(-c3c(-c4ccccc4)noc3C)n2)cc1C [IIA-72]

# Same assay, conditions: read-out: Activity in the JNK3 Inhibition Assay (Ki rating)
row,Compound,Ki
1,COc1ccc(-c2noc(C)c2-c2ccnc(Nc3ccccc3)n2)c(OC)c1 [IIA-13],> 1000 nM
2,Cc1onc(-c2ccc(Cl)c(Cl)c2)c1-c1ccnc(Nc2ccccc2)n1 [IIA-15],100 to 1000 nM
3,Cc1onc(-c2cc(F)ccc2F)c1-c1ccnc(Nc2ccccc2)n1 [IIA-74],100 to 1000 nM
4,Cc1onc(-c2c(F)cccc2Cl)c1-c1ccnc(Nc2ccccc2)n1 [IIA-75],100 to 1000 nM
5,Cc1onc(-c2ccccc2Cl)c1-c1ccnc(Nc2ccccc2)n1 [IIA-76],100 to 1000 nM
6,Cc1onc(-c2ccccc2Br)c1-c1ccnc(Nc2ccccc2)n1 [IIA-79],100 to 1000 nM
7,Cc1onc(-c2cccc(F)c2F)c1-c1ccnc(Nc2ccccc2)n1 [IIA-80],100 to 1000 nM
8,Cc1onc(-c2cccc(C(F)(F)F)c2)c1-c1ccnc(Nc2ccccc2)n1 [IIA-82],100 to 1000 nM
9,Cc1onc(-c2cc(F)cc(F)c2)c1-c1ccnc(Nc2ccccc2)n1 [IIA-83],100 to 1000 nM
10,Cc1onc(-c2c(Cl)cccc2Cl)c1-c1ccnc(Nc2ccccc2)n1 [IIA-84],100 to 1000 nM
11,COc1cccc(-c2noc(C)c2-c2ccnc(Nc3ccccc3)n2)c1OC [IIA-85],> 1000 nM
12,Cc1noc(C)c1-c1ccnc(Nc2ccccc2)n1 [IIA-86],> 1000 nM
13,Cc1onc(C2CC2)c1-c1ccnc(Nc2ccccc2)n1 [IIA-87],> 1000 nM
14,Cc1onc(-c2c(F)cccc2F)c1-c1ccnc(Nc2cccc(C#N)c2)n1 [IIA-92],< 100 nM
15,Cc1onc(-c2c(F)cccc2F)c1-c1ccnc(Nc2ccc(C#N)cc2)n1 [IIA-93],< 100 nM
16,Cc1onc(-c2c(F)cccc2F)c1-c1ccnc(Nc2cccc(F)c2)n1 [IIA-94],< 100 nM
17,Cc1onc(-c2c(F)cccc2F)c1-c1ccnc(Nc2ccc(F)cc2)n1 [IIA-95],< 100 nM
18,CSc1ccc(Nc2nccc(-c3c(-c4c(F)cccc4F)noc3C)n2)cc1 [IIA-97],< 100 nM
19,Cc1onc(-c2ccccc2)c1-c1ccnc(Nc2ccc(N(C)C)cc2)c1 [IIA-98],< 100 nM

row,Compound,Ki
1,Cc1ccc(Nc2nccc(-c3c(-c4ccccc4)noc3C)n2)cc1 [IIA-103],< 100 nM
2,Cc1ccccc1-c1noc(C)c1-c1ccnc(Nc2ccccc2)n1 [IIA-104],< 100 nM
3,Cc1ccccc1-c1noc(C)c1-c1ccnc(Nc2ccc(C#N)c(F)c2)n1 [IIA-105],< 100 nM
4,Cc1cccc(Nc2nccc(-c3c(-c4ccccc4C)noc3C)n2)c1 [IIA-108],< 100 nM
5,Cc1ccccc1-c1noc(C)c1-c1ccnc(Nc2cccc(C#N)c2)n1 [IIA-109],< 100 nM
6,Cc1onc(-c2ccccc2C(F)(F)F)c1-c1ccnc(Nc2ccc(C#N)c(F)c2)n1 [IIA-110],> 1000 nM
7,Cc1onc(-c2ccccc2C(F)(F)F)c1-c1ccnc(Nc2ccccc2)n1 [IIA-112],> 1000 nM
8,Cc1onc(-c2ccc3c(c2)OCO3)c1-c1ccnc(Nc2ccccc2)n1 [IIA-115],100 to 1000 nM
9,Cc1onc(-c2cccc(OCc3ccccc3)c2)c1-c1ccnc(Nc2ccc(C#N)c(F)c2)n1 [IIA-117],100 to 1000 nM
10,Cc1onc(-c2cccc(OCc3ccccc3)c2)c1-c1ccnc(Nc2ccccc2)n1 [IIA-119],100 to 1000 nM
11,Cc1onc(-c2cccc([N+](=O)[O-])c2)c1-c1ccnc(Nc2ccccc2)n1 [IIA-123],100 to 1000 nM
12,Cc1onc(-c2cccc(C#N)c2)c1-c1ccnc(Nc2cccc(C#N)c2)n1 [IIA-126],100 to 1000 nM
13,Cc1onc(-c2cccc(C#N)c2)c1-c1ccnc(Nc2ccccc2)n1 [IIA-127],100 to 1000 nM
14,CCOC(=O)c1ccc(Nc2nccc(-c3c(-c4cccc([N+](=O)[O-])c4)noc3C)n2)cc1 [IIA-128],100 to 1000 nM
15,COC(=O)c1cccc(Nc2nccc(-c3c(-c4cccc(C#N)c4)noc3C)n2)c1 [IIA-129],100 to 1000 nM
16,CCOC(=O)c1cccc(Nc2nccc(-c3c(-c4ccccc4)noc3C)n2)c1 [IIA-130],< 100 nM
17,Cc1onc(-c2ccccc2)c1-c1ccnc(Nc2cccc(CCC(=O)O)c2)c1 [IIA-132],< 100 nM
18,Cc1onc(-c2ccccc2)c1-c1ccnc(Nc2cccc(CC(=O)O)c2)c1 [IIA-133],< 100 nM

# The next lines start with the values.
row,Ki,Compound
1,< 100 nM,"Cc1onc(-c2ccccc2)c1-c1ccnc(Nc2ccccc2)n1 [IIA-1, [4-(5-Methyl-3-phenyl-isoxazol-4-yl)-pyrimidin-2-yl]-phenyl-amine]"
2,< 100 nM,Cc1onc(-c2ccccc2)c1-c1ccnc(Nc2cccc(C#N)c2)n1 [IIA-7]
3,< 100 nM,Cc1onc(-c2ccc(F)cc2)c1-c1ccnc(Nc2ccccc2)n1 [IIA-11]
4,< 100 nM,CC(=O)c1ccc(Nc2nccc(-c3c(-c4ccccc4)noc3C)n2)cc1 [IIA-35]
5,< 100 nM,CSc1cccc(Nc2nccc(-c3c(-c4ccccc4)noc3C)n2)c1 [IIA-37]
6,< 100 nM,Cc1cc(Nc2nccc(-c3c(-c4ccccc4)noc3C)n2)ccc1C#N [IIA-38]
7,< 100 nM,CC(=O)c1cccc(Nc2nccc(-c3c(-c4ccccc4)noc3C)n2)c1 [IIA-39]
8,< 100 nM,CCc1onc(-c2ccccc2)c1-c1ccnc(Nc2ccccc2)c1 [IIA-40]
9,< 100 nM,Cc1onc(-c2ccccc2)c1-c1ccnc(Nc2ccc(F)cc2)n1 [IIA-42]
10,< 100 nM,Cc1onc(-c2ccccc2)c1-c1ccnc(Nc2cccc(C(=O)O)c2)c1 [IIA-43]
11,< 100 nM,Cc1onc(-c2ccccc2)c1-c1ccnc(Nc2ccc(-c3ccccc3)cc2)n1 [IIA-44]
12,< 100 nM,CSc1ccc(Nc2nccc(-c3c(-c4ccccc4)noc3C)n2)cc1 [IIA-46]
13,< 100 nM,COc1ccc(Nc2cc(-c3c(-c4ccccc4)noc3C)ccn2)cc1 [IIA-47]
14,< 100 nM,"Cc1onc(-c2ccccc2)c1-c1ccnc(Nc2ccccc2)c1 [IIA-52, [4-(5-Methyl-3-phenyl-isoxazol-4-yl)-pyridin-2-yl]phenyl-amine]"
15,< 100 nM,Cc1onc(-c2ccccc2)c1-c1ccnc(Nc2ccc(C(=O)O)cc2)c1 [IIA-53]
16,< 100 nM,Cc1onc(-c2ccccc2F)c1-c1ccnc(Nc2ccccc2)n1 [IIA-55]
17,< 100 nM,Cc1onc(-c2ccccc2)c1-c1ccnc(Nc2ccc(F)cc2F)n1 [IIA-56]
18,< 100 nM,Cc1onc(-c2ccccc2)c1-c1ccnc(Nc2ccccc2F)n1 [IIA-59]
19,< 100 nM,Cc1onc(-c2c(F)cccc2F)c1-c1ccnc(Nc2ccccc2)n1 [IIA-60]
20,< 100 nM,COc1ccc(Nc2nccc(-c3c(-c4ccccc4)noc3C)n2)c(C)c1 [IIA-61]
21,< 100 nM,COc1ccccc1Nc1nccc(-c2c(-c3ccccc3)noc2C)n1 [IIA-62]
22,< 100 nM,Cc1onc(-c2ccccc2)c1-c1ccnc(Nc2ccc(S(C)(=O)=O)cc2)n1 [IIA-63]
23,< 100 nM,COC(=O)c1ccc(Nc2cc(-c3c(-c4ccccc4)noc3C)ccn2)cc1 [IIA-64]
24,< 100 nM,Cc1onc(-c2cccc(F)c2)c1-c1ccnc(Nc2ccccc2)n1 [IIA-66]
25,< 100 nM,Cc1onc(-c2ccccc2)c1-c1ccnc(Nc2cccc(C#N)c2)c1 [IIA-67]
26,< 100 nM,Cc1onc(C(C)(C)C)c1-c1ccnc(Nc2ccccc2)n1 [IIA-90]
